In PubChem BioAssay AID248 (DTP/NCI, 2004):
Where “and” joins values, the source holds several entries; their conditions need not be identical. Identical values can stand only once. Toxic doses and inconclusive results are not listed.

System: L1210 leukemia ip in BDF1 mice, survival T/C
Experiment: NCI In Vivo Anticancer Drug Screen. Data for tumor model L1210 Leukemia (intraperitoneal) in B6D2F1 (BDF1) mice
Conditions: endpoint: mean survival time, higher = longer survival
How it was run: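 Ratio derived from survival: compound-dosed mice over vehicle-dosed mice, all bearing a transplantable tumor.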

[1] = dose: 25.0 mg/kg/injection, schedule: Q01DX009 (ip), vehicle: saline
[2] = dose: 50.0 mg/kg/injection, schedule: Q01DX009 (ip), vehicle: saline
[3] = dose: 100.0 mg/kg/injection, schedule: Q01DX001 (ip), vehicle: Klucel (hydroxypropylcellulose) (HPC)
[4] = dose: 200.0 mg/kg/injection, schedule: Q01DX001 (ip), vehicle: Klucel (hydroxypropylcellulose) (HPC)
[5] = dose: 100.0 mg/kg/injection, schedule: Q01DX009 (ip), vehicle: saline sonified
[6] = dose: 200.0 mg/kg/injection, schedule: Q01DX009 (ip), vehicle: saline sonified
[7] = dose: 400.0 mg/kg/injection, schedule: Q01DX009 (ip), vehicle: saline sonified
[8] = dose: 100.0 mg/kg/injection, schedule: Q04DX003 (ip), vehicle: saline with Tween-80
[9] = dose: 200.0 mg/kg/injection, schedule: Q04DX003 (ip), vehicle: saline with Tween-80
[10] = dose: 400.0 mg/kg/injection, schedule: Q04DX003 (ip), vehicle: saline with Tween-80
[11] = dose: 100.0 mg/kg/injection, schedule: Q01DX009 (ip), vehicle: Klucel (hydroxypropylcellulose) (HPC)
[12] = dose: 100.0 mg/kg/injection, schedule: Q04DX003 (ip), vehicle: Klucel (hydroxypropylcellulose) (HPC)
[13] = dose: 200.0 mg/kg/injection, schedule: Q01DX009 (ip), vehicle: Klucel (hydroxypropylcellulose) (HPC)
[14] = dose: 200.0 mg/kg/injection, schedule: Q04DX003 (ip), vehicle: Klucel (hydroxypropylcellulose) (HPC)
[15] = dose: 400.0 mg/kg/injection, schedule: Q01DX009 (ip), vehicle: Klucel (hydroxypropylcellulose) (HPC)
[16] = dose: 400.0 mg/kg/injection, schedule: Q04DX003 (ip), vehicle: Klucel (hydroxypropylcellulose) (HPC)
[17] = dose: 100.0 mg/kg/injection, schedule: Q01DX009 (ip), vehicle: saline with Tween-80
[18] = dose: 200.0 mg/kg/injection, schedule: Q01DX009 (ip), vehicle: saline with Tween-80
[19] = dose: 400.0 mg/kg/injection, schedule: Q01DX009 (ip), vehicle: saline with Tween-80
[20] = dose: 100.0 mg/kg/injection, schedule: Q01DX001 (ip), vehicle: saline
[21] = dose: 200.0 mg/kg/injection, schedule: Q01DX001 (ip), vehicle: saline
[22] = dose: 400.0 mg/kg/injection, schedule: Q01DX001 (ip), vehicle: saline
[23] = dose: 100.0 mg/kg/injection, schedule: Q04DX003 (ip), vehicle: saline
[24] = dose: 100.0 mg/kg/injection, schedule: Q01DX001 (ip), vehicle: carboxymethylcellulose (CMC)
[25] = dose: 200.0 mg/kg/injection, schedule: Q01DX001 (ip), vehicle: carboxymethylcellulose (CMC)
[26] = dose: 400.0 mg/kg/injection, schedule: Q01DX001 (ip), vehicle: carboxymethylcellulose (CMC)
[27] = dose: 400.0 mg/kg/injection, schedule: Q01DX001 (ip), vehicle: Klucel (hydroxypropylcellulose) (HPC)
[28] = dose: 100.0 mg/kg/injection, schedule: Q04DX002 (ip), vehicle: saline with Tween-80
[29] = dose: 200.0 mg/kg/injection, schedule: Q04DX002 (ip), vehicle: saline with Tween-80
[30] = dose: 400.0 mg/kg/injection, schedule: Q04DX002 (ip), vehicle: saline with Tween-80
[31] = dose: 100.0 mg/kg/injection, schedule: Q04DX003 (ip), vehicle: saline sonified
[32] = dose: 200.0 mg/kg/injection, schedule: Q04DX003 (ip), vehicle: saline sonified
[33] = dose: 400.0 mg/kg/injection, schedule: Q04DX003 (ip), vehicle: saline sonified

`CCS/C(N)=N\N` was tested, and the T/C (dose: 12.5 mg/kg/injection, schedule: Q01DX009 (ip), vehicle: saline) was 95 % of control, the T/C [1] was 98 % of control and the T/C (dose: 25.0 mg/kg/injection, schedule: Q04DX003 (ip), vehicle: saline) was 113 % of control. For the same compound, the T/C [2] was 104 % of control and the T/C (dose: 50.0 mg/kg/injection, schedule: Q04DX003 (ip), vehicle: saline) was 98 % of control.
`C=C(Br)CNC(=O)NCCCl` was tested, and the T/C [3] was 90 % of control and the T/C [4] was 96 % of control.
With `O=C(O)CCCCCCC1CCCC1=O` (stereo not given) the T/C [5] was 97 % of control, the T/C [6] was 91 % of control and the T/C [7] was 97 % of control.
In the case of `CCOC(=O)c1ccc(NC(=O)CS)cc1`, the T/C [8] is reported as 89 % of control, the T/C [9] is reported as 94 % of control and the T/C [10] is reported as 97 % of control.
For `CCCCCCCCC(=O)CCC`, the T/C [11] was 98 % of control, the T/C [12] was 98 % of control and the T/C [13] was 98 % of control. For the same compound, the T/C [14] was 106 % of control, the T/C [15] was 98 % of control and the T/C [16] was 91 % of control.
`Cc1ccc(S(=O)(=O)Nc2ccc3nc(C)oc3c2)cc1` was tested, and the T/C [17] was 100 % of control, the T/C [8] was 96 % of control and the T/C [18] was 102 % of control. For the same compound, the T/C [9] was 91 % of control, the T/C [19] was 93 % of control and the T/C [10] was 89 % of control.
For `c1ccc2c(c1)NC1CCN2C1` (stereo not given), the T/C [8] was 109 % of control, the T/C [9] was 103 % of control and the T/C [10] was 97 % of control.
`CC(Cc1ccccc1)N1C(=O)C=CC1=O` (stereo not given) was tested, and the T/C (dose: 3.12 mg/kg/injection, schedule: Q01DX009 (ip), vehicle: Klucel (hydroxypropylcellulose) (HPC)) was 92 % of control, the T/C (dose: 6.25 mg/kg/injection, schedule: Q01DX009 (ip), vehicle: Klucel (hydroxypropylcellulose) (HPC)) was 101 % of control and the T/C (dose: 12.5 mg/kg/injection, schedule: Q01DX009 (ip), vehicle: Klucel (hydroxypropylcellulose) (HPC)) was 93 % of control and 90 % of control.
`CCCCCCCSc1ncnc2c1ncn2CO` was tested, and the T/C [2] was 104 % of control, the T/C (dose: 80.0 mg/kg/injection, schedule: Q01DX009 (ip), vehicle: saline) was 107 % of control and the T/C [20] was 101 % of control. For the same compound, the T/C (dose: 117.0 mg/kg/injection, schedule: Q01DX009 (ip), vehicle: other) was 114 % of control, the T/C (dose: 120.0 mg/kg/injection, schedule: Q01DX009 (ip), vehicle: saline) was 104 % of control and the T/C [21] was 95 % of control. The T/C [22] was 115 % of control and the T/C (dose: 400.0 mg/kg/injection, schedule: Q01DX009 (ip), vehicle: saline) was 164 % of control.
In the case of `CN(C)C(=S)NCc1ccccc1`, the T/C [17] is reported as 95 % of control and the T/C [18] is reported as 101 % of control.
`CCOP(=S)(OCC)Oc1ccc(Sc2ccc(OP(=S)(OCC)OCC)cc2)cc1` was tested, and the T/C [20] was 101 % of control, the T/C [21] was 101 % of control and the T/C [22] was 107 % of control.
With `C/C(=N\O)C(=O)c1ccccc1` the T/C [11] was 98 % of control, the T/C [12] was 107 % of control and the T/C [23] was 103 % of control. For the same compound, the T/C [13] was 100 % of control, the T/C [14] was 100 % of control and the T/C (dose: 200.0 mg/kg/injection, schedule: Q04DX003 (ip), vehicle: saline) was 107 % of control. The T/C [15] was 93 % of control, the T/C [16] was 104 % of control and the T/C (dose: 400.0 mg/kg/injection, schedule: Q04DX003 (ip), vehicle: saline) was 108 % of control.
With `S=C1NC(c2ccccc2)NC(c2ccccc2)S1` (stereo not given) the T/C (dose: 12.0 mg/kg/injection, schedule: Q01DX009 (ip), vehicle: saline) was 93 % of control, the T/C [1] was 90 % of control and the T/C [2] was 90 % of control.
For `O=C(Nc1cc([N+](=O)[O-])ccc1O)Nc1cccc(Cl)c1Cl`, the T/C [11] was 88 % of control, the T/C [13] was 100 % of control and the T/C [15] was 92 % of control.
`C=C(C(=O)c1ccccc1)C(O)c1ccccc1` (stereo not given) was tested, and the T/C [17] was 104 % of control, the T/C [8] was 100 % of control and the T/C [18] was 90 % of control. The T/C [9] was 100 % of control and the T/C [10] was 97 % of control.
`CN(C)Cc1cc(C(F)(F)F)ccc1C(O)(c1ccccc1)c1ccccc1` was tested, and the T/C (dose: 50.0 mg/kg/injection, schedule: Q01DX001 (ip), vehicle: carboxymethylcellulose (CMC)) was 110 % of control, the T/C [24] was 101 % of control and the T/C [25] was 101 % of control. The T/C [26] was 98 % of control.
With `CCOC(=O)C(NC(=O)CCl)C(=O)OCC` the T/C (dose: 50.0 mg/kg/injection, schedule: Q01DX009 (ip), vehicle: Klucel (hydroxypropylcellulose) (HPC)) was 91 % of control, the T/C [11] was 94 % of control and the T/C [12] was 100 % of control. The T/C [13] was 91 % of control and the T/C [14] was 91 % of control.
With `COc1ccccc1N=C(C)CC(C)=O` the T/C [3] was 100 % of control, the T/C [4] was 91 % of control and the T/C [27] was 99 % of control.
For `Cc1ccc(NC(=O)c2ccc(Cl)cc2Cl)cc1C`, the T/C [3] was 90 % of control, the T/C [17] was 106 % of control and the T/C [12] was 108 % of control. The T/C [4] was 90 % of control, the T/C [18] was 97 % of control and the T/C [14] was 93 % of control. For the same compound, the T/C [27] was 92 % of control, the T/C [19] was 100 % of control and the T/C [16] was 94 % of control.
In the case of `CC(C)(C)[C]1=Nc2cccc[c]2[Ge]1([CH3])[CH3]`, the T/C [28] is reported as 108 % of control, the T/C [29] is reported as 93 % of control and the T/C [30] is reported as 97 % of control.
With `COc1ccccc1/C=C(\C(=O)O)c1cccc2ccccc12` the T/C [12] was 93 % of control, the T/C [14] was 100 % of control and the T/C [16] was 98 % of control.
`NCCCCNc1ncnc2c1ncn2C1OC(CO)C(O)C1O` (stereo not given) was tested, and the T/C (dose: 100.0 mg/kg/injection, schedule: Q01DX005 (ip), vehicle: saline) was 104 % of control and the T/C (dose: 200.0 mg/kg/injection, schedule: Q01DX005 (ip), vehicle: saline) was 116 % of control.
In the case of `O=C(O)C1=C(C(=O)Nc2cccc3cccnc23)C2C=CC1O2` (stereo not given), the T/C [20] is reported as 96 % of control, the T/C [21] is reported as 97 % of control and the T/C [22] is reported as 95 % of control.
For `ClCCCCCCCCCCc1ccccc1`, the T/C [5] was 91 % of control, the T/C [31] was 96 % of control and the T/C [6] was 93 % of control. For the same compound, the T/C [32] was 102 % of control, the T/C [7] was 89 % of control and the T/C [33] was 98 % of control.
With `O=C(O)c1cccc([N+](=O)[O-])c1Br` the T/C [11] was 94 % of control, the T/C [13] was 100 % of control and the T/C [15] was 91 % of control.
For `O=C(COc1ccccc1)Nc1ccccc1C(=O)O`, the T/C (dose: 100.0 mg/kg/injection, schedule: Q01DX001 (ip), vehicle: gum acacia) was 97 % of control, the T/C (dose: 200.0 mg/kg/injection, schedule: Q01DX001 (ip), vehicle: gum acacia) was 90 % of control and the T/C (dose: 400.0 mg/kg/injection, schedule: Q01DX001 (ip), vehicle: gum acacia) was 90 % of control.
`CC1(O)C=CCC1` (stereo not given) was tested, and the T/C (dose: 75.0 mg/kg/injection, schedule: Q01DX001 (ip), vehicle: carboxymethylcellulose (CMC)) was 104 % of control and the T/C (dose: 150.0 mg/kg/injection, schedule: Q01DX001 (ip), vehicle: carboxymethylcellulose (CMC)) was 102 % of control.
With `CC1(C)N=C(N)Nc2nnc(-c3ccc(F)cc3)n21` the T/C [31] was 89 % of control, the T/C [32] was 101 % of control and the T/C [33] was 89 % of control.
With `O=C1OC(=O)C2C1C1C=CC2C1(c1ccccc1)c1ccccc1` (stereo not given) the T/C [24] was 96 % of control, the T/C [25] was 96 % of control and the T/C [26] was 96 % of control.
In the case of `CCOc1ccccc1NC(=O)Oc1ccc(SC)c(C)c1`, the T/C [28] is reported as 113 % of control, the T/C [29] is reported as 110 % of control and the T/C [30] is reported as 103 % of control.
In the case of `COc1ccc(C)cc1NN`, the T/C [1] is reported as 101 % of control, the T/C [2] is reported as 97 % of control and the T/C [23] is reported as 96 % of control.
`CC1(C)N=C(N)N=C(N)N1c1cccc(C(=O)O)c1` was tested, and the T/C (dose: 25.0 mg/kg/injection, schedule: Q01DX001 (ip), vehicle: saline) was 100 % of control, the T/C (dose: 50.0 mg/kg/injection, schedule: Q01DX001 (ip), vehicle: saline) was 102 % of control and the T/C [20] was 105 % of control.
